Patent US9845285B2, “Crystalline solid and amorphous forms of (−)-halofenate and methods related thereto” (CymaBay Therapeutics, Inc., priority 2005, dated 2017)
Read-outs that look alike come from different tables or passages of the source.

Experiments:
physchem = settings: for solubility: thermodynamic from solid
Experimental: Solubility studies were done on Form A in water and a variety of organic solvents. […] Solubility was also determined in these solvents at approximately 50° C.

[1] = Slurry interconversion studies in cyclohexane; format: physicochemical; settings: for form resulting from slurry: cyclohexane, ambient temperature, 50° C. and 5° C.
Experimental: Samples of mixed forms by XRPD and pure forms were used for interconversion studies (see FIG. 37).
A saturated solution was prepared by vortexing and sonicating ca. 4 mg (−)-halofenate Form A in approximately 5-6 mL cyclohexane. This solution was filtered into a sample containing a mixture of ca. 40 mg Form A/Form D. The mixture was slurred on a rotating wheel at ambient temperature for approximately 6 days. The solids were recovered by vacuum filtration and vacuum dried at ambient temperature. The dry solids were analyzed by polarized light microscopy and XRPD.
The experiment was repeated using a shaker block at ca 50° C. using 2 mL of cyclohexane and slurried for ca. 3 days. and the supernatant was removed through decantation. Both the ambient and 50° C. experiments were repeated using pure forms A and E (ca. 20 mg of each form). The ambient experiment was also repeated with A, B, D, and E (ca. 10 mg of each form, slurred approximately 7 days) on a rotating wheel and on a magnetic stir plate in the refrigerator (ca 5° C.). When conversion was not deemed complete by XRPD solids were re-slurried in cyclohexane.
Interconversion studies were carried out in cyclohexane at ambient temperature 50° C. and 5° C. (see FIG. 37). The solvent was chosen because of the high solubility of the various forms in common organic solvents. Forms A, B, D and E were used as starting materials.

[2] = Automated moisture sorption/desorption; format: physicochemical; settings: for solid form after moisture sorption/desorption: XRPD after desorption
Experimental: Moisture sorption/desorption data were collected on a VTI-SGA-100 Vapor Sorption Analyzer. Sorption and desorption data were collected over a range of 5% to 95% relative humidity (RH) at 10% RH intervals under a nitrogen purge. Samples were not dried prior to analysis. Equilibrium criteria used for analysis were less than 0.0100% weight change in 5 minutes with a maximum equilibration time of 3 hours if the weight criterion was not met. Data were not corrected for the initial moisture content of the samples. Sodium chloride and polyvinylpyrolidone were used as calibration standards. A sample was taken after desorption was complete and analyzed by powder X-ray diffraction for potential form change.

[3] = Solid form stability on drying, slurrying and storage; format: physicochemical; settings: for conversion to other solid forms: upon drying, slurrying or over time
[4] = Thermal analysis (DSC/TGA), decomposition; format: physicochemical
Experimental: Differential scanning calorimetry (DSC) was performed using a TA Instruments 2920 differential scanning calorimeter. The sample was placed into an aluminum DSC pan and the weight accurately recorded. The pan was covered with a lid and then crimped. The sample cell was equilibrated at 25° C. and heated under a nitrogen purge at a rate of 10° C./min, up to a final temperature of 350° C. Indium metal was used as the calibration standard. Reported temperatures are at the transition maxima.
Thermographic analyses (TGA) was performed using a TA Instruments 2920 thermographic analyzer. The sample was placed into an aluminum sample pan and inserted into a TGA furnace. The sample was first equilibrated at 25° C., then heated under a nitrogen at a rate of 10° C./min, up to a final temperature of 350° C. Nickel and ALUMEL™ were used as calibration standards.

cytochrome P450 2C9 = cytochrome P450 2C9 (Homo sapiens, UniProt P11712); settings: cited from earlier work
cytochrome P450 2C9, sequence (P11712 whole entry): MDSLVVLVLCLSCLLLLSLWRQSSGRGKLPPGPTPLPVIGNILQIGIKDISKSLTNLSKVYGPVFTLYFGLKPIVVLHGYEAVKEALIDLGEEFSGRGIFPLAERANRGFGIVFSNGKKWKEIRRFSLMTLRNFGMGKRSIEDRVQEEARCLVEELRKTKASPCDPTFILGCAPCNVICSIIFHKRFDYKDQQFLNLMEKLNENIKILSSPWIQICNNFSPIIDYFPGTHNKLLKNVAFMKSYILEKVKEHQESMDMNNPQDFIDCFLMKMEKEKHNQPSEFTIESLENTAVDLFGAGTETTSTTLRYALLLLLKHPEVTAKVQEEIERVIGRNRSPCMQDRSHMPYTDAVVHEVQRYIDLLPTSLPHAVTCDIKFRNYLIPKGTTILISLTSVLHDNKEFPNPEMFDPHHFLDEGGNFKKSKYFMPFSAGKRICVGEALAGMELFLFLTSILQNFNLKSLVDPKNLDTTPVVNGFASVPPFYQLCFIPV

[5] = cited from earlier work

SMILES | form resulting from slurry [1] | hygroscopicity [2] | solid form after moisture sorption/desorption [2] | conversion to other solid forms [3] | decomposition onset [4] | also measured
CC(=O)NCCOC(=O)C(Oc1cccc(C(F)(F)F)c1)c1ccc(Cl)cc1 (single isomer, unassigned; (-)) [(−)-halofenate, (−)-2-acetamidoethyl 4-chlorophenyl-(3-trifluoromethylphenoxy)-acetate] |  |  |  |  |  | solubility (physchem; organic solvent or mixture): > 300 mg/mL; solubility (physchem; water): < 1 mg/mL
CC(=O)NCCOC(=O)C(Oc1cccc(C(F)(F)F)c1)c1ccc(Cl)cc1 (stereo not shown) [Form D] | resulted in Form A | non-hygroscopicity | remained Form D | could be converted to Form A upon slurring | approximately 225 °C | weight gain ([2]; at 95% RH): less than 0.1%
O=C(O)C(Oc1cccc(C(F)(F)F)c1)c1ccc(Cl)cc1 (single isomer, unassigned; (-)) [(−)-enantiomer of halofenic acid] |  |  |  |  |  | ability to inhibit cytochrome P450 2C9 compared to the (+)-enantiomer (less active) (cytochrome P450 2C9; versus (+)-enantiomer of halofenic acid, U.S. Pat. No. 6,262,118): about twenty-fold
CC(=O)NCCOC(=O)C(Oc1cccc(C(F)(F)F)c1)c1ccc(Cl)cc1 (stereo not shown) [Form E] | resulted in Form A | non-hygroscopicity | remained Form E | could be converted to Form A upon slurring | approximately 225 °C | weight gain ([2]; at 95% RH): less than 0.2%
O=C(O)C(Oc1cccc(C(F)(F)F)c1)c1ccc(Cl)cc1 (racemic) [halofenic acid, 4-Chlorophenyl-(3-trifluoromethylphenoxy)-acetic acid] |  |  |  |  |  | inhibition of cytochrome P450 2C9 (cytochrome P450 2C9): inhibited
CC(=O)NCCOC(=O)C(Oc1cccc(C(F)(F)F)c1)c1ccc(Cl)cc1 (stereo not shown) [Form B] | resulted in Form A |  |  | could be converted to other solid forms upon drying or slurrying |  | 
CC(=O)NCCOC(=O)C(Oc1cccc(C(F)(F)F)c1)c1ccc(Cl)cc1 (stereo not shown) [Form A] | resulted in Form A | non-hygroscopic | essentially unchanged |  | approximately 200 °C | relative stability of crystal form ([1]; from slurry interconversion in cyclohexane): most stable crystal form; weight gain ([2]; at 65% relative humidity (RH)): no weight gain; weight gain ([2]; at 65-95% RH): 1.6%; loss of weight gain in desorption study ([2]; desorption at 5% RH): All of the weight gain was lost; relative thermodynamic stability of crystalline solid form [3]: most thermodynamically stable; relative thermodynamic stability of crystalline solid form ([3]; listed as form A): most stable crystalline solid form; storage stability ([3]; long periods (months)): could be stored for long periods (months) without decomposition; relative solubility in crystallization solvents (physchem; some crystallization solvents): lower solubility
CC(=O)NCCOC(=O)C(Oc1cccc(C(F)(F)F)c1)c1ccc(Cl)cc1 (racemic) [racemic halofenate, 2-acetamidoethyl 4-chlorophenyl-(3-trifluoromethylphenoxy)-acetate] |  |  |  |  |  | side effects ([5]; Friedberg et al., Clin. Res. 1986): gastrointestinal bleeding from stomach and peptic ulcers; drug-drug interactions ([5]; with agents such as warfarin sulfate (COUMADIN), Vesell and Passantanti 1972): some indications of drug-drug interactions
CC(=O)NCCOC(=O)C(Oc1cccc(C(F)(F)F)c1)c1ccc(Cl)cc1 (stereo not shown) [Form C] |  |  |  | could be converted to other forms upon drying or slurrying |  | conversion to other solid forms ([3]; listed as form C): over time conversion to crystal form E (below) occurred
